The target of this test is TNFα (Homo sapiens (Human), UniProt P01375). The test is described as follows: TNF induced HEK-Blue assay. The format is cell-based. As to conditions: TNFα 0.5 ng/ml; HEK-Blue-CD40L cells, NF-κB-driven secreted alkaline phosphatase reporter; 18 h. The procedure: Test compounds serially diluted in DMSO were plated in an assay plate (Labcyte, Cat. #LP-0200) at final concentrations ranging from 0.004 μM to 25 μM. TNFα (final concentration 0.5 ng/ml) or CD40L (final concentration 30 ng/ml) in assay buffer [DMEM, 4.5 g/l glucose (Gibco, Cat. 21063-029), 10% FBS (Sigma, F4135), 1% Penicillin-Streptomycin (Gibco, Cat. 15140-122), 1% Anti-Anti (Gibco, Cat. 15240-112) and 2 mM L-glutamine (Gibco, Cat. 25030-081)] was then added to the assay plate. After a 30 minute pre-incubation at 37° C. and 5% CO2, HEK-Blue-CD40L cells (InvivoGen, Cat. Code hkb-cd40) containing a NF-κB-driven secreted alkaline phosphatase reporter gene were seeded into the assay plate at a density of 20,000 cells per well. This plate was then incubated for 18 h at 37° C. and 5% CO2. Secreted alkaline phosphatase expression was measured using QUANTI-Blue (InvivoGen, Cat. Code rep-qb1) according to manufacturer's specifications and the assay plate was read on a PerkinElmer Envision at 620 nm.
Sequence of TNFα (P01375 77-233): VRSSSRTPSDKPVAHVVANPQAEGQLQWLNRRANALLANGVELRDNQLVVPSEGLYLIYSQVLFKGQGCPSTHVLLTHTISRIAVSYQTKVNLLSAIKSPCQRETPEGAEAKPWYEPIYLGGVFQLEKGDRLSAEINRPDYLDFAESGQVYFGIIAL
Inhibition data for the test compound over a range of concentrations was plotted as percentage inhibition of the test compound (100%=maximum inhibition). IC50 values were determined after correcting for background [(sample read−mean of low control)/(mean of high control−mean of low control)] where by the low control is DMSO without stimulation and high control is DMSO with stimulation. The IC50 is defined as the concentration of test compound which produces 50% inhibition and was quantified using the 4 parameter logistic equation to fit the data.
Table 5 lists the IC50 values measured in the TNF induced HEK-Blue assay for Examples 1 to 40 of this invention.
By IC50 is commonly meant the concentration that inhibits the measured activity by half. Lower therefore signals greater potency. On to `CC(C)(O)c1ccc(-c2ccc3nc4n(c3n2)C(c2ccccc2C(F)(F)F)CC4)cc1` (racemic) [Example 25 (rac), 2-(4-(8-(2-(Trifluoromethyl)phenyl)-7,8-dihydro-6H-pyrrolo[2′,1′:2,3]imidazo[4,5-b]pyridin-2-yl)phenyl)propan-2-ol], for which the IC50 is less than 1 µM.

The molecule `CC(C)(O)c1ccc(-c2ccc3nc4n(c3n2)C(c2ccccc2OC(F)F)CC4)cc1` (racemic) [Example 26 (rac), 2-(4-(8-(2-(difluoromethoxy)phenyl)-7,8-dihydro-6H-pyrrolo[2′,1′:2,3]imidazo[4,5-b]pyridin-2-yl)phenyl)propan-2-ol] gave an IC50 of less than 1 µM.

`CC(C)(O)c1ncc(-c2ccc3nc4n(c3n2)C(c2ccccc2OC(F)F)CC4)cn1` (racemic) [Example 27 (rac), 2-(5-(8-(2-(difluoromethoxy)phenyl)-7,8-dihydro-6H-pyrrolo[2′,1′:2,3]imidazo[4,5-b]pyridin-2-yl)pyrimidin-2-yl)propan-2-ol] yielded an IC50 of less than 1 µM.

For `FC(F)Oc1ccccc1C1CCc2nc3ccc(-c4cnc(N5CCOCC5)nc4)nc3n21` (racemic) [Example 28 (rac), 4-(5-(8-(2-(difluoromethoxy)phenyl)-7,8-dihydro-6H-pyrrolo[2′,1′:2,3]imidazo[4,5-b]pyridin-2-yl)pyrimidin-2-yl)morpholine], the IC50 is less than 1 µM.

`COc1ccc(-c2ccc3nc4n(c3n2)C(c2ccccc2OC(F)F)CC4)cn1` (racemic) [Example 29 (rac), 8-(2-(difluoromethoxy)phenyl)-2-(6-methoxypyridin-3-yl)-7,8-dihydro-6H-pyrrolo[2′,1′:2,3]imidazo[4,5-b]pyridine]: the IC50 was 1 to 10 µM.

As for `Cn1cc(-c2ccc3nc4n(c3n2)C(c2ccccc2OC(F)F)CC4)cn1` (racemic) [Example 30 (rac), 8-(2-(difluoromethoxy)phenyl)-2-(1-methyl-1H-pyrazol-4-yl)-7,8-dihydro-6H-pyrrolo[2′,1′:2,3]imidazo[4,5-b]pyridine], the IC50 was in the range of 1 to 10 µM.

Regarding `CC(C)(O)c1ccc(-c2ccc3nc4n(c3n2)C(c2c(F)cccc2C(F)(F)F)CC4)cc1` (racemic) [Example 32 (e2), 2-(4-(8-(2-fluoro-6-(trifluoromethyl)phenyl)-7,8-dihydro-6H-pyrrolo[2′,1′:2,3]imidazo[4,5-b]pyridin-2-yl)phenyl)propan-2-ol], the IC50 is less than 1 µM.

In turn, `CC(C)(O)c1ccc(-c2ccc3nc4n(c3n2)C(c2c(F)cccc2C(F)(F)F)CC4)cc1` (racemic) [Example 32 (rac), 2-(4-(8-(2-fluoro-6-(trifluoromethyl)phenyl)-7,8-dihydro-6H-pyrrolo[2′,1′:2,3]imidazo[4,5-b]pyridin-2-yl)phenyl)propan-2-ol] registered an IC50 of less than 1 µM.

`CC(C)(O)c1ccc(-c2ccc3nc4n(c3n2)C(c2cc(F)ccc2C(F)(F)F)CC4)cc1` (racemic) [Example 34 (rac), 2-(4-(8-(5-fluoro-2-(trifluoromethyl)phenyl)-7,8-dihydro-6H-pyrrolo[2′,1′:2,3]imidazo[4,5-b]pyridin-2-yl)phenyl)propan-2-ol] gave a concentration for half-maximal inhibition (IC50) of less than 1 µM.

As for `COc1ccccc1C1CCc2nc3ccc(-c4cnc(N5CCN(CC(=O)O)CC5)nc4)nc3n21` (racemic) [Example 35 (rac), 2-(4-(5-(8-(2-methoxyphenyl)-7,8-dihydro-6H-pyrrolo[2′,1′:2,3]imidazo[4,5-b]pyridin-2-yl)pyrimidin-2-yl)piperazin-1-yl)acetic acid], the IC50 is 1 to 10 µM.

With `CC(C)(O)c1ccc(-c2ccc3nc4n(c3n2)C(c2ccccc2C(F)(F)F)CC4O)cc1` (single isomer, unassigned) [Example 1 (e1), 2-(4-(2-Hydroxypropan-2-yl)phenyl)-8-(2-(trifluoromethyl)phenyl)-7,8-dihydro-6H-pyrrolo[2′,1′:2,3]imidazo[4,5-b]pyridin-6-ol], the IC50 is less than 1 µM.

Molecule `CC(C)(O)c1ccc(-c2ccc3nc4n(c3n2)C(c2ccccc2C(F)(F)F)CC4O)cc1` (single isomer, unassigned) [Example 1 (e2), 2-(4-(2-Hydroxypropan-2-yl)phenyl)-8-(2-(trifluoromethyl)phenyl)-7,8-dihydro-6H-pyrrolo[2′,1′:2,3]imidazo[4,5-b]pyridin-6-ol] came in with an IC50 of 1 to 10 µM.

For the molecule `CC(C)(O)c1ccc(-c2ccc3nc4n(c3n2)C(c2ccccc2C(F)(F)F)CC4O)cc1` (single isomer, unassigned) [Example 1 (e3), 2-(4-(2-Hydroxypropan-2-yl)phenyl)-8-(2-(trifluoromethyl)phenyl)-7,8-dihydro-6H-pyrrolo[2′,1′:2,3]imidazo[4,5-b]pyridin-6-ol], the IC50 was in the range of 1 to 10 µM.

In the case of `CC(C)(O)c1ccc(-c2ccc3nc4n(c3n2)C(c2ccccc2C(F)(F)F)CC4O)cc1` (single isomer, unassigned) [Example 1 (e4), 2-(4-(2-Hydroxypropan-2-yl)phenyl)-8-(2-(trifluoromethyl)phenyl)-7,8-dihydro-6H-pyrrolo[2′,1′:2,3]imidazo[4,5-b]pyridin-6-ol], the IC50 lay within 1 to 10 µM.

Molecule `CC(C)(O)c1ccc(-c2ccc3nc4n(c3n2)C(c2ccccc2OC(F)F)CC4O)cc1` (single isomer, unassigned) [Example 2 (e1), 8-(2-(difluoromethoxy)phenyl)-2-(4-(2-hydroxypropan-2-yl)phenyl)-7,8-dihydro-6H-pyrrolo[2′,1′:2,3]imidazo[4,5-b]pyridin-6-ol] showed an IC50 of less than 1 µM.

`CC(C)(O)c1ccc(-c2ccc3nc4n(c3n2)C(c2ccccc2OC(F)F)CC4O)cc1` (single isomer, unassigned) [Example 2 (e2), 8-(2-(difluoromethoxy)phenyl)-2-(4-(2-hydroxypropan-2-yl)phenyl)-7,8-dihydro-6H-pyrrolo[2′,1′:2,3]imidazo[4,5-b]pyridin-6-ol] showed an IC50 of 1 to 10 µM.

`CC(C)(O)c1ccc(-c2ccc3nc4n(c3n2)C(c2ccccc2OC(F)F)CC4O)cc1` (single isomer, unassigned) [Example 2 (e3), 8-(2-(difluoromethoxy)phenyl)-2-(4-(2-hydroxypropan-2-yl)phenyl)-7,8-dihydro-6H-pyrrolo[2′,1′:2,3]imidazo[4,5-b]pyridin-6-ol] gave an IC50 of 1 to 10 µM.

As for `CC(C)(O)c1ccc(-c2ccc3nc4n(c3n2)C(c2ccccc2OC(F)F)CC4O)cc1` (single isomer, unassigned) [Example 2 (e4), 8-(2-(difluoromethoxy)phenyl)-2-(4-(2-hydroxypropan-2-yl)phenyl)-7,8-dihydro-6H-pyrrolo[2′,1′:2,3]imidazo[4,5-b]pyridin-6-ol], the half-maximal inhibitory concentration (IC50) fell in the range of 1 to 10 µM.

`CC(C)(O)c1ccc(-c2ccc3nc4n(c3n2)C(c2c(F)cccc2C(F)(F)F)CC4O)cc1` (single isomer, unassigned) [Example 3 (e1), 8-(2-fluoro-6-(trifluoromethyl)phenyl)-2-(4-(2-hydroxypropan-2-yl)phenyl)-7,8-dihydro-6H-pyrrolo[2′,1′:2,3]imidazo[4,5-b]pyridin-6-ol] returned an IC50 of less than 1 µM.

Consider `CC(C)(O)c1ccc(-c2ccc3nc4n(c3n2)C(c2c(F)cccc2C(F)(F)F)CC4O)cc1` (single isomer, unassigned) [Example 3 (e2), 8-(2-fluoro-6-(trifluoromethyl)phenyl)-2-(4-(2-hydroxypropan-2-yl)phenyl)-7,8-dihydro-6H-pyrrolo[2′,1′:2,3]imidazo[4,5-b]pyridin-6-ol], for which the IC50 is less than 1 µM.

The molecule `CC(C)(O)c1ccc(-c2ccc3nc4n(c3n2)C(c2c(F)cccc2C(F)(F)F)CC4O)cc1` (single isomer, unassigned) [Example 3 (e3), 8-(2-fluoro-6-(trifluoromethyl)phenyl)-2-(4-(2-hydroxypropan-2-yl)phenyl)-7,8-dihydro-6H-pyrrolo[2′,1′:2,3]imidazo[4,5-b]pyridin-6-ol] came in with an IC50 of less than 1 µM.

Regarding `CC(C)(O)c1ccc(-c2ccc3nc4n(c3n2)C(c2ccccc2C2CC2)CC4O)cc1` (single isomer, unassigned) [Example 9 (e3), 8-(2-cyclopropylphenyl)-2-(4-(2-hydroxypropan-2-yl)phenyl)-7,8-dihydro-6H-pyrrolo[2′,1′:2,3]imidazo[4,5-b]pyridin-6-ol], the IC50 was in the range of 1 to 10 µM.

In turn, `CC(C)(O)c1ccc(-c2ccc3nc4n(c3n2)C(c2ccccc2C2CC2)CC4O)cc1` (single isomer, unassigned) [Example 9 (e4), 8-(2-cyclopropylphenyl)-2-(4-(2-hydroxypropan-2-yl)phenyl)-7,8-dihydro-6H-pyrrolo[2′,1′:2,3]imidazo[4,5-b]pyridin-6-ol] came in with an IC50 of 1 to 10 µM.

For the molecule `COc1ccccc1C1CC(O)c2nc3ccc(-c4ccc(C(C)(C)O)cc4)nc3n21` (single isomer, unassigned) [Example 12 (e2), 2-(4-(2-hydroxypropan-2-yl)phenyl)-8-(2-methoxyphenyl)-7,8-dihydro-6H-pyrrolo[2′,1′:2,3]imidazo[4,5-b]pyridin-6-ol], the IC50 is 1 to 10 µM.

The record behind these values is patent publication US10189840B2, “Substituted tricyclic heterocyclic compounds” (BRISTOL-MYERS SQUIBB COMPANY, priority 2015, dated 2019).
